# Laboratory results reported in patent US9085576B2 (AMGEN INC., priority 2013, dated 2015).
# Tests used:
# [1] = target: Beta Secretase enzyme (BACE) (Homo sapiens (Human), UniProt P56817); test: In vitro enzymatic BACE FRET assay; format: biochemical; settings: read-out: BACE1 Enzyme assay IC50
# Cathepsin D (Cat D) = Cathepsin D (Cat D) (Homo sapiens (Human), UniProt P07339); test: In vitro enzymatic Cathepsin D (Cat D) FRET assay; format: biochemical; settings: read-out: CatD IC50
# BACE = BACE (Homo sapiens (Human), UniProt P56817); test: In vitro BACE cell-based assay (Aβ40 in conditioned medium, sandwich ELISA)
# Chain of BACE (P56817 46-501, species assumed): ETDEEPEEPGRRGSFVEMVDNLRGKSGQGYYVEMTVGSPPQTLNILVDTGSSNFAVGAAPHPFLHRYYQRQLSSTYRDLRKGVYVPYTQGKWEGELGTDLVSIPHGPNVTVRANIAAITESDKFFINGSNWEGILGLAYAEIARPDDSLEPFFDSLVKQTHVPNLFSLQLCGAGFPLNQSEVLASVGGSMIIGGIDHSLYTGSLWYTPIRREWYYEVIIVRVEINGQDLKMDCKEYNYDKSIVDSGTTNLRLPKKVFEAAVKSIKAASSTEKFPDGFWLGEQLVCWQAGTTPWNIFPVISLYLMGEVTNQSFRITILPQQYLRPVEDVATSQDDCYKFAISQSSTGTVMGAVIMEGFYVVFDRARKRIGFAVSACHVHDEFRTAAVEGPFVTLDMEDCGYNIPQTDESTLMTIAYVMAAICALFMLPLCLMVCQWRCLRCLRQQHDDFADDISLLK
# Chain of Cathepsin D (Cat D) (P07339 65-412, species assumed): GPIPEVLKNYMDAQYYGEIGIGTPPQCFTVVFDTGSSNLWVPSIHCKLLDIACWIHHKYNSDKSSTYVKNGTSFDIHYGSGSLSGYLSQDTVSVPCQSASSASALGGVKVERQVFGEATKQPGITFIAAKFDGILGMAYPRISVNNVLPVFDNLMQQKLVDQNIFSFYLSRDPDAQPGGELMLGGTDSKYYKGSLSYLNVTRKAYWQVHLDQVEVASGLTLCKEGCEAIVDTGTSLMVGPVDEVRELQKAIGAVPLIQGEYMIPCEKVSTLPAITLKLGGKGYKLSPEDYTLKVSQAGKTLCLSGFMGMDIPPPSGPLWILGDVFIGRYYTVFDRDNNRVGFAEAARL
# Chain of Beta Secretase enzyme (BACE) (P56817 46-501): as the sequence (P56817 46-501, species assumed) above
IC50 [1] [µM],IC50 (Cathepsin D (Cat D)) [µM],IC50 (BACE) [µM],SMILES
0.107,753,0.148,"Cc1cnc(C(=O)Nc2ccc(F)c([C@@]3(C(F)F)N=C(N)O[C@@H]4C[C@@H]43)c2)c(C)c1 [Example 185, N-(3-((1R,5S,6R)-3-amino-5-(difluoromethyl)-2-oxa-4-azabicyclo[4.1.0]hept-3-en-5-yl)-4-fluorophenyl)-3,5-dimethylpicolinamide]"
0.0093,459,0.0132,"NC1=N[C@@](c2cc(NC(=O)c3ccc(Br)cn3)ccc2Cl)(C(F)F)[C@H]2C[C@H]2O1 [Example 214, N-(3-((1R,5S,6R)-3-amino-5-(difluoromethyl)-2-oxa-4-azabicyclo[4.1.0]hept-3-en-5-yl)-4-chlorophenyl)-5-bromopicolinamide]"
0.142,447,0.0405,"COc1cnc(C(=O)Nc2cc(C)c(F)c([C@@]3(C(F)F)N=C(N)O[C@@H]4C[C@@H]43)c2)c(C)n1 [Example 300, N-(3-((1R,5S,6R)-3-amino-5-(difluoromethyl)-2-oxa-4-azabicyclo[4.1.0]hept-3-en-5-yl)-4-fluoro-5-methylphenyl)-5-methoxy-3-methylpyrazine-2-carboxamide]"
0.0126,> 400,0.0147,"NC1=N[C@@](c2cc(NC(=O)c3ncc(Cl)cc3Cl)ccc2Cl)(C(F)F)[C@H]2C[C@H]2O1 [Example 211, N-(3-((1R,5S,6R)-3-amino-5-(difluoromethyl)-2-oxa-4-azabicyclo[4.1.0]hept-3-en-5-yl)-4-chlorophenyl)-3,5-dichloropicolinamide]"
2.42,1130,1.31,"Cc1cc(OC(F)F)cnc1C(=O)Nc1ccc(Cl)c([C@]2(C(F)F)N=C(N)O[C@H]3C[C@H]32)c1 [Example 213, N-(3-((1S,5R,6S)-3-amino-5-(difluoromethyl)-2-oxa-4-azabicyclo[4.1.0]hept-3-en-5-yl)-4-chlorophenyl)-5-(difluoromethoxy)-3-methylpicolinamide]"
0.314,684,0.0612,"COc1cnc(C(=O)Nc2ccc(C)c([C@@]3(C(F)F)N=C(N)O[C@@H]4C[C@@H]43)c2)cn1 [Example 294, N-(3-((1R,5S,6R)-3-amino-5-(difluoromethyl)-2-oxa-4-azabicyclo[4.1.0]hept-3-en-5-yl)-4-methylphenyl)-5-methoxypyrazine-2-carboxamide]"
0.0322,538,0.012,"NC1=N[C@](CF)(c2cc(NC(=O)c3ccc(Br)cn3)ccc2Cl)[C@H]2C[C@H]2O1 [Example 274, N-(3-((1R,5S,6R)-3-amino-5-(fluoromethyl)-2-oxa-4-azabicyclo[4.1.0]hept-3-en-5-yl)-4-chlorophenyl)-5-bromopicolinamide]"

# The next lines start with the molecule.
SMILES,IC50 [1] [µM],IC50 (Cathepsin D (Cat D)) [µM],IC50 (BACE) [µM]
"NC1=N[C@](CF)(c2cc(NC(=O)c3ccc(OCF)cn3)ccc2Cl)[C@H]2C[C@H]2O1 [Example 183, N-(3-((1R,5S,6R)-3-amino-5-(fluoromethyl)-2-oxa-4-azabicyclo[4.1.0]hept-3-en-5-yl)-4-chlorophenyl)-5-(fluoromethoxy) picolinamide]",0.0998,882,0.0218
"Cc1c(C(=O)Nc2ccc(F)c([C@]3(C(F)F)N=C(N)O[C@H]4C[C@H]43)c2)nc2ccc(Cl)cn12 (racemic) [Example 61, N-(3-([1(R,S),5(S,R),6(R,S)]-3-amino-5-(difluoromethyl)-2-oxa-4-azabicyclo[4.1.0]hept-3-en-5-yl)-4-fluorophenyl)-6-chloro-3-methylimidazo[1,2-a]pyridine-2-carboxamide]",0.167,1780,0.0701
"Cc1nc(OCC(F)(F)F)cnc1C(=O)Nc1cc(F)c(Cl)c([C@]2(CF)N=C(N)O[C@H]3C[C@H]32)c1 (racemic) [Example 159, N-(3-([1(S,R),5(R,S),6(S,R)]-3-amino-5-(fluoromethyl)-2-oxa-4-azabicyclo[4.1.0]hept-3-en-5-yl)-4-chloro-5-fluorophenyl)-3-methyl-5-(2,2,2-trifluoroethoxy)pyrazine-2-carboxamide]",0.226,1050,0.466
"NC1=N[C@@](c2cc(NC(=O)c3c(F)cc(F)cc3F)ccc2F)(C(F)F)[C@H]2C[C@H]2O1 [Example 451, N-(3-((1R,5S,6R)-3-amino-5-(difluoromethyl)-2-oxa-4-azabicyclo[4.1.0]hept-3-en-5-yl)-4-fluorophenyl)-2,4,6-trifluorobenzamide]",5.38,960,6.28
"NC1=N[C@@](c2cc(NC(=O)c3ccc(Cl)s3)ccc2F)(C(F)F)[C@H]2C[C@H]2O1 [Example 179, N-(3-((1R,5S,6R)-3-amino-5-(difluoromethyl)-2-oxa-4-azabicyclo[4.1.0]hept-3-en-5-yl)-4-fluorophenyl)-5-chlorothiophene-2-carboxamide]",0.871,474,0.661
"Cc1nc(OCC(F)(F)F)cnc1C(=O)Nc1cc(F)c(Cl)c([C@]2(CF)N=C(N)O[C@H]3C[C@H]32)c1 [Example 316, N-(3-((1S,5R,6S)-3-amino-5-(fluoromethyl)-2-oxa-4-azabicyclo[4.1.0]hept-3-en-5-yl)-4-chloro-5-fluorophenyl)-3-methyl-5-(2,2,2-trifluoroethoxy)pyrazine-2-carboxamide]",> 40,1080,> 15.6
"NC1=N[C@@](c2cc(NC(=O)c3ccc(C#CC4CC4)cn3)ccc2F)(C(F)F)[C@H]2C[C@H]2O1 [Example 405, N-(3-((1R,5S,6R)-3-amino-5-(difluoromethyl)-2-oxa-4-azabicyclo[4.1.0]hept-3-en-5-yl)-4-fluorophenyl)-5-(cyclopropylethynyl)picolinamide]",0.0237,399,0.215
"NC1=N[C@@](c2cc(NC(=O)c3ccc(OCc4nccs4)cn3)ccc2F)(C(F)F)[C@H]2C[C@H]2O1 [Example 172, N-(3-((1R,5S,6R)-3-amino-5-(difluoromethyl)-2-oxa-4-azabicyclo[4.1.0]hept-3-en-5-yl)-4-fluorophenyl)-5-(thiazol-2-ylmethoxy) picolinamide]",0.0824,360,0.446
"CSc1c(F)cc(NC(=O)c2ccc(Cl)cn2)cc1[C@@]1(CF)N=C(N)O[C@@H]2C[C@@H]21 (racemic) [Example 141, N-(3-(((1S,R),(5S,R),(6R,S))-3-amino-5-(fluoromethyl)-2-oxa-4-azabicyclo[4.1.0]hept-3-en-5-yl)-5-fluoro-4-(methylthio)phenyl)-5-chloropicolinamide]",> 40,655,> 15.6
Cc1cc(C(F)(F)F)cnc1C(=O)Nc1cc(F)c(F)c([C@@]2(CF)N=C(N)O[C@@H]3C[C@@H]32)c1 [Example 51],0.0627,113,0.0143
"C#CCOc1cnc(C(=O)Nc2ccc(F)c([C@@]3(CF)N=C(N)O[C@@H]4C[C@@H]43)c2)cn1 [Example 197, N-(3-((1R,5S,6R)-3-amino-5-(fluoromethyl)-2-oxa-4-azabicyclo[4.1.0]hept-3-en-5-yl)-4-fluorophenyl)-5-(prop-2-yn-1-yloxy)pyrazine-2-carboxamide]",0.0066,260,0.0023
"Cc1cc(C#N)cnc1C(=O)Nc1cc(Cl)c(F)c([C@@]2(CF)N=C(N)O[C@@H]3C[C@@H]32)c1 [Example 91, N-(3-((1R,5S,6R)-3-amino-5-(fluoromethyl)-2-oxa-4-azabicyclo[4.1.0]hept-3-en-5-yl)-5-chloro-4-fluorophenyl)-5-cyano-3-methylpicolinamide]",0.0506,260,0.0073
"NC1=N[C@@](c2cc(NC(=O)C3(c4ccc(Cl)cc4)CCC3)ccc2F)(C(F)F)[C@H]2C[C@H]2O1 [Example 246, N-(3-((1R,5S,6R)-3-amino-5-(difluoromethyl)-2-oxa-4-azabicyclo[4.1.0]hept-3-en-5-yl)-4-fluorophenyl)-1-(4-chlorophenyl) cyclobutanecarboxamide]",> 40,324,> 15.6
"COc1cnc(C(=O)Nc2cc(Cl)c(F)c([C@@]3(CF)N=C(N)O[C@@H]4C[C@@H]43)c2)c(C)n1 [Example 89, N-(3-((1R,5S,6R)-3-amino-5-(fluoromethyl)-2-oxa-4-azabicyclo[4.1.0]hept-3-en-5-yl)-5-chloro-4-fluorophenyl)-5-methoxy-3-methylpyrazine-2-carboxamide]",0.0731,574,0.0245
"C[C@@H](Nc1ccc(F)c([C@@]2(C(F)F)N=C(N)O[C@@H]3C[C@@H]32)c1)c1ccc(Cl)cn1 (mixture of isomers) [Example 378, (1R,5S,6R)-5-(5-(((R)-1-(5-chloropyridin-2-yl)ethyl)amino)-2-fluorophenyl)-5-(difluoromethyl)-2-oxa-4-azabicyclo[4.1.0]hept-3-en-3-amine and (1R,5S,6R)-5-(5-(((S)-1-(5-chloropyridin-2-yl)ethyl)amino)-2-fluorophenyl)-5-(difluoromethyl)-2-oxa-4-azabicyclo[4.1.0]hept-3-en-3-amine]",13.8,77.4,2.13
"N#Cc1ccc(C(=O)Nc2cnc(F)c([C@@]3(CF)N=C(N)O[C@@H]4C[C@@H]43)c2)nc1 [Example 204, N-(5-((1R,5S,6R)-3-amino-5-(fluoromethyl)-2-oxa-4-azabicyclo[4.1.0]hept-3-en-5-yl)-6-fluoropyridin-3-yl)-5-cyanopicolinamide]",0.145,294,0.0335
"CC#Cc1cnn(-c2ccc(F)c([C@@]3(C(F)F)N=C(N)O[C@@H]4C[C@@H]43)c2)c1 [Example 434, (1R,5S,6R)-5-(difluoromethyl)-5-(2-fluoro-5-(4-(prop-1-yn-1-yl)-1H pyrazol-1-yl)phenyl)-2-oxa-4-azabicyclo[4.1.0]hept-3-en-3-amine]",1.21,386,0.561
